Source: patent US8103455B2, “Method of assessing the proliferation or differentiation behaviour of a population of target cells in a biological system” (Medical Research Council, priority 2006, dated 2012)

Assays:
Format in all cases: in vivo, mouse
[1] = test system: epidermal progenitor cells (EPC) of tail epidermis; experiment: Clone size distribution of EYFP-labelled epidermal progenitor cell clones after topical retinoid treatment, fitted to the model
Procedure: All animal experiments were conducted as specified by Home Office Project License. The generation of AhcreERT and R26EYFP/EYFP mice has been described previously^15,16. […] Epidermal wholemounts were prepared as described^14. For analysis of back epidermis, 60 μm cryosections were used.
(§1) Clone size was determined by Z stack confocal imaging of at least 50 clones containing at least one basal cell in each mouse at each time point. […] The percentage of Ki67 positive cells was determined by imaging at least 1500 basal cells in multiple fields from at least 3 mice.
(§2) All trans retinoic acid (Sigma) in ethanol, propanediol 70:30 was applied topically to tail skin and shaved back skin (0.5 ml each) 5 days a week for 3 months at 0.33 mM or daily for 2 weeks at 1 mM.
(§3) Two protocols were used: (1) Mice were induced and after a three month interval treated with either 0.33 mM all trans retinoic acid (ATRA) or vehicle alone for a further 3 months. (2) Mice were treated with 1 mM all trans retinoic acid (ATRA) or vehicle alone for 2 weeks, beginning immediately after induction.

basal cells of tail IFE = experiment: Proliferation rate of basal cells by Ki67 staining; details: ATRA treated mice, topical; controls 16.5+/-2.2%
Procedure: as §1, §2, §3

[2] = test system: mitotic spindles of tail IFE; experiment: Analysis of mitotic spindle orientation in DAPI stained epidermal wholemounts; details: ATRA treatment, topical (3 months per figure legend)
Procedure: as §2, §3

## CC1=C(/C=C/C(C)=C/C=C/C(C)=C/C(=O)O)C(C)(C)CCC1 [ATRA, all trans retinoic acid]
[1]; at two weeks, both protocols, unchanged from wildtype
  AD (asymmetric division) rate from fit of model to two cell clone distribution: 84%
[1]; both protocols: 0.33 mM for 3 months starting 3 months after induction, 1 mM for 2 weeks from induction, versus vehicle
  clone size: increase substantially
[1]; fit of model to two cell clone distribution at two weeks, vehicle factor 1.4
  EPC division rate, factor of increase: 22
Basal cells of tail IFE
  proliferation rate assessed by Ki67 staining (mean+/-sem): 57.0+/−3.7%
[2]
  orientation of mitotic spindles: did not alter the orientation of mitotic spindles
